Reference: patent publication US20060167098A1, “Method for the treatment of diseases linked to an accumulation of triglycerides and cholesterol” (Institut National De La Sante ET De LA Recherche Medicale …, priority 2003, published 2006)

How the values were obtained:
[1] = system: mitochondrial beta-oxidation of fatty acids in liver; test: Mitochondrial beta-oxidation of fatty acids in liver
[2] = Gain of body fat mass by DEXA in Swiss mice, standard diet, not fasted; assay type: in vivo; details: 100 mg/kg/day; for gain of body fat: standard diet, not fasted
Text: Six to 8 weeks old male (Crl:CD-1(ICR)BR) Swiss mice, and six to ten weeks old male RjOrl Swiss mice (i.e. lean mice) weighing 28 and 32 grams were purchased from Dépré (Saint Doulchard, France). Ten to 12 weeks old ob/ob male (C57BL/6-ob) mice (i.e. obese mice), weighing 40 to 44 grams were purchased from Janvier (Le-Genest-St-Isle, France). In one experiment, younger ob/ob mice (5-6 weeks old) weighing 25-26 grams were also studied. In genetically obese ob/ob mice, a mutation on the gene of leptin prevents the normal production of this hormone, thus increasing appetite and decreasing energy consumption (Friedman J. M., Halaas J. L., 1998, Nature 395 : 763-770). […] The animals were acclimatized for one to two weeks before the start of experiments.
D,L-β-Aminoisobutyric acid (BAIBA) was purchased from Sigma-Aldrich. BAIBA has been administered in drinking water at the dose of 100 mg/kg/day or 500 mg/kg/day for 6 weeks, 2 months or 4 months according to the experiments.
The in vivo determination of body fat mass in anesthetized mice has been performed by “DEXA” (Dual Energy X-ray Absorptiometry) (Pietriobelli A., Formica C., Wang Z., Heymsfield S. B., 1996, Am. J. Physiol. 271 (Endocrinol. Metab. 34): E941-E951)). […] It is noteworthy that DEXA also gives for each investigated animal its lean mass that is the total amount of water and proteins (in grams) in the body (excluding the head). Therefore, for a given animal, DEXA allows the determination of the percentage of body fat which is its body fat mass divided by the sum of its body lean and fat masses (fat mass/(lean mass+fat mass)). The “DEXA” apparatus was a Piximus® from Lunar Corporation (Madison, Wis.). Mice were anesthetized thanks to a mixture of xylazine and ketamine.
Procedure 1: the animals were not fasted before DEXA investigations. The first DEXA measurement was performed one day before the beginning of the investigation (T0). Afterwards, DEXA measurements have been respectively performed two weeks (T2) and six weeks (T6) after the beginning of the treatment. With this procedure, it has been possible to determine in each group of animals the evolution of several parameters (e.g. fat mass, body weight) between respectively T0 and T2, and T2 and T6. Comparisons of these evolutions were thus performed for the T0-T2, T2-T6 and T0-T6 periods.
In a second series of investigations, we sought to determine as to whether of 100 mg/kg/day of β-aminoisobutyric acid (BAIBA) decreases body fat in Swiss mice not submitted to fast before DEXA measurements. Mice were 6 to 8 weeks old at the beginning of the experiment. In this experiment, DEXA was performed one day before the beginning of the treatment (T0) and then two and six weeks after the initiation of the experience (T2 and T6, respectively). This allowed us to determine for each animal the variation of body fat mass for the different periods of the treatment (T0-T2, T2-T6 and T0-T6). […] This effect of BAIBA is submitted in FIG. 2.

[3] = Plasma glucose in lean mice, standard diet, 6 weeks, not fasted; assay type: in vivo; details: 100 mg/kg/day 6 weeks
Protocol: (§1) Plasma glucose was measured on an automatic analyser (Synchron LX20 from Beckman Coulter) with a commercial kit (kit n°472500 from Beckman).
In a second series of experiments plasma glucose was assessed in lean mice fed with the standard diet and receiving (6 mice) or not (6 mice) 100 mg/kg/day of β-aminoisobutyric acid in the drinking water for 6 weeks, but at the end of the experiment, mice were not fasted. […] Indeed, plasma glucose was 11.5±0.8 and 10.7±0.4 mmol/L, respectively in control and treated mice.

[4] = Plasma lipids in ob/ob mice, 6 weeks, 48-hour fast; assay type: in vivo
Protocol: Plasma lipids (triglycerides, total cholesterol, phospholipids) were measured on an automatic analyser (Hitachi 717®). The commercial kits used to assess triglycerides, total cholesterol and phospholipids on this analyser were all from bioMérieux (references 61238, 61219 and 61491, respectively). Plasma non esterified fatty acids (NEFA) were assessed by using a commercial kit (Wako, reference 994-75409). Hepatic and plasma lipids were performed at the end of six weeks of treatment in animals that have been fasted for 48 hours. Triglycerides and HDL-cholesterol were also assessed after 2 months (in the fed state) or after 4 months of treatment (after an overnight fast).
Plasma lipids were assessed in ob/ob mice fed with a standard diet and receiving or not β-aminoisobutyric acid (BAIBA) in the drinking water during 6 weeks. These animals (7 controls and 10 treated with BAIBA) were those used for the determination of hepatic lipids (see above, paragraph II-b). At the end of the 6 weeks of treatment, mice were submitted to a 48-hour period of fast. Samples of blood were then collected (from the retroorbital sinus) for the assessment of plasma triglycerides, phospholipids and total cholesterol and mice were subsequently killed for assessment of liver triglycerides (see above). In this experiment, BAIBA decreased by 5, 23 and 19%, respectively plasma triglycerides, phospholipids and total cholesterol. The results are submitted in FIG. 7.

[5] = Plasma glucose, insulin, adiponectin and leptin in lean mice, standard diet, 6 weeks, 48 hours fast; assay type: in vivo; details: 100 mg/kg/day 6 weeks, fasted 48 hours
Protocol: as §1
Plasma insulin, adiponectin and leptin were measured by radioimmunoassay (RIA). Insulin was measured with the Insulin-CT kit from Cis Bio International (Gif-sur-Yvette, France), whereas plasma leptin and adiponectin were assessed with kits from Linco Research Inc. (St Charles, Mo.). Leptin was not measured in ob/ob mice since these animals are genetically leptin-deficient (Friedman J. M., Halaas J. L., 1998, Nature 395: 763-770). Results regarding insulin were expressed as recommended by kit manufacturer.
Glucose, insulin, adiponectine and leptin were assessed in lean mice fed with the standard diet and receiving (13 mice) or not (12 mice) 100 mg/kg/day of β-aminoisobutyric acid in the drinking water for 6 weeks.
At the end of the 6-weeks period of treatment, mice were submitted to a fasting period for 48 hours. Plasma glucose, insulin and adiponectin were not changed in treated mice, but a trend toward lower leptin levels was observed. Indeed, plasma leptin was 3.72±0.59 and 3.14±0.34 ng/ml, respectively in control mice (n=12) and mice treated with β-aminoisobutyric acid (n=13). Leptin is an adipokine mainly secreted by adipose tissue and its plasma levels in human and mice are highly correlated with the whole adipose tissue mass (Friedman J. M. and Hallas J. L., 1998, Nature 395: 763-770). Thus, data regarding plasma leptin are in keeping with the observation that β-aminoisobutyric acid limits body fat accumulation in lean mice.

SMILES: CC(CN)C(=O)O (racemic) [BAIBA, D,L-β-Aminoisobutyric acid]
- mitochondrial beta-oxidation of fatty acids in liver [1]: increases
- gain of body fat ([2]; T0-T2 period): 0.56±0.12 grams
- gain of body weight ([2]; T0-T6): 9.02±0.42 grams
- reduction of the gain of fat mass ([2]; T0-T6, standard diet, vs control): 55%
- reduction of the gain of body weight ([2]; T0-T6, vs control, p<0.01): 12%
- gain of body fat ([2]; T0-T6 period): 0.84±0.18 grams
- gain of body fat ([2]; T2-T6 period): 0.28±0.12 grams
- plasma glucose [3]: 10.7 ± 0.4 mmol/L
- decrease of plasma phospholipids [4]: 23%
- decrease of plasma total cholesterol [4]: 19%
- decrease of plasma triglycerides [4]: 5%
- plasma triglycerides [4]: 1.32 ± 0.14 mmol/L
- plasma phospholipids ([4]; p<0.01): 4.07 ± 0.26 mmol/L
- plasma total cholesterol ([4]; p<0.05): 4.98 ± 0.34 mmol/L
- plasma adiponectin vs control [5]: not changed
- plasma glucose vs control [5]: not changed
- plasma insulin vs control [5]: not changed
- plasma leptin [5]: 3.14 ± 0.34 ng/mL
